# According to publication PMC6704710, “Preclinical evaluation of 3D185, a novel potent inhibitor of FGFR1/2/3 and CSF-1R, in FGFR-dependent and macrophage-dominant cancer models” (Journal of Experimental & Clinical Cancer Research : CR, 2019):
# Legend:
# Experiment in all cases: Eurofins kinase panel
# Type in all cases: biochemical
# Conditions in all cases: read-out: Inhibition rate (%)
# CaMKIV(h) = target: T1, CaMKIV(h) (Homo sapiens, UniProt Q16566)
# T1 construct: purchased Eurofins (KinaseProfiler)
# T1 sequence (Q16566 1-473): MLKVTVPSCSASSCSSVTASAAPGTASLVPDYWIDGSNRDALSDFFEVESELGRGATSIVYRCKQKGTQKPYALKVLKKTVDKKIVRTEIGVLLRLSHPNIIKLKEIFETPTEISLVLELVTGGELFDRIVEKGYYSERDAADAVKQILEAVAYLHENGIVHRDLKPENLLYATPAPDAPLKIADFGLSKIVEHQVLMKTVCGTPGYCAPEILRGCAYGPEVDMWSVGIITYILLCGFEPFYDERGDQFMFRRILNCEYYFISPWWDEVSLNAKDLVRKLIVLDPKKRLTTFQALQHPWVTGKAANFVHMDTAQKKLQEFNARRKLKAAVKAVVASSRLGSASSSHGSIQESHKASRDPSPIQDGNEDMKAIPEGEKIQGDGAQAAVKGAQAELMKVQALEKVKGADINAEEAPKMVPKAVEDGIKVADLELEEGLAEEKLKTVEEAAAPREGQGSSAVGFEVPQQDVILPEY
# CaMKIγ(h) = target: T2, CaMKIγ(h) (Homo sapiens, UniProt Q96NX5)
# T2 construct: purchased Eurofins (KinaseProfiler)
# IKKα(h) = target: T3, IKKα(h) (Homo sapiens, UniProt O15111)
# T3 construct: purchased Eurofins (KinaseProfiler)
# T3 sequence (O15111 1-745): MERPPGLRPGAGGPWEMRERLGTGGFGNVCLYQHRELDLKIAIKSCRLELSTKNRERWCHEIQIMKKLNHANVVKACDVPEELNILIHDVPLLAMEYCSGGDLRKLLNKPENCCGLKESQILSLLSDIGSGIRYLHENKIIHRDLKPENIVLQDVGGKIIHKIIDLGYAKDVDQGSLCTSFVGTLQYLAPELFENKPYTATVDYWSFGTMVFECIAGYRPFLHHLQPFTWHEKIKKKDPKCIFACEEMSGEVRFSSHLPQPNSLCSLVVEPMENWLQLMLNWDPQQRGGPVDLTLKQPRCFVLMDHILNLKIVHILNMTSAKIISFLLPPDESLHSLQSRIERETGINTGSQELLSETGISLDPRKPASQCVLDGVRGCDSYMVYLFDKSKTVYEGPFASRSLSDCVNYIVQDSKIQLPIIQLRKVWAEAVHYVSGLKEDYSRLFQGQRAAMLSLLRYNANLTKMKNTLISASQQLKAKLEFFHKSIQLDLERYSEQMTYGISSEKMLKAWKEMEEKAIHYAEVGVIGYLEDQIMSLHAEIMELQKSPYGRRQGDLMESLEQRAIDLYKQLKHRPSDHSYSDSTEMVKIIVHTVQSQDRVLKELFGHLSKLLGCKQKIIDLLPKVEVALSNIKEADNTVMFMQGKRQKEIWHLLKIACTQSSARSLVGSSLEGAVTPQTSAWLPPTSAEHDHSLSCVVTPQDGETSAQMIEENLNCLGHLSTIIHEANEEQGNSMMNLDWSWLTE
# PAK5(h) = target: T4, PAK5(h) (Homo sapiens, UniProt Q9P286)
# T4 construct: purchased Eurofins (KinaseProfiler)
# Tec(h) activated = target: T5, Tec(h) activated (Homo sapiens, UniProt P42680)
# T5 construct: purchased Eurofins (KinaseProfiler)
# T5 sequence (P42680 1-631): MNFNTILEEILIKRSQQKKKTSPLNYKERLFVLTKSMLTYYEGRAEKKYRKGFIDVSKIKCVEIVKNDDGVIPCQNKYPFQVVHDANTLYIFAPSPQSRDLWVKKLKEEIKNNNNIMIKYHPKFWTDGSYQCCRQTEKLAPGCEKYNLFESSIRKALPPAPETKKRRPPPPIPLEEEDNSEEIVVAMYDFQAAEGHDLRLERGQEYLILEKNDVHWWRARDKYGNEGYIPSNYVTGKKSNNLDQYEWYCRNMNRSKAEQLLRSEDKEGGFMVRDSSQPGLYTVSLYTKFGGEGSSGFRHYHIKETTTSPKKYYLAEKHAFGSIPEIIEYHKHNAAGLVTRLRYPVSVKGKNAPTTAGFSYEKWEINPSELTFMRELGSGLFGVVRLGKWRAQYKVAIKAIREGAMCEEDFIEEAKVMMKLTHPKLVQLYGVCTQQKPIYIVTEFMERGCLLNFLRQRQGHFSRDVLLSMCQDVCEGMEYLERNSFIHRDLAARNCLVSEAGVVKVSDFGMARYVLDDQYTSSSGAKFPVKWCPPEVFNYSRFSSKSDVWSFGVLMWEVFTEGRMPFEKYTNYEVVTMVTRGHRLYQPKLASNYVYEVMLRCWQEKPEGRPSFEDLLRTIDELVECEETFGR
# c-RAF(h) = target: T6, c-RAF(h) (Homo sapiens, UniProt P04049)
# T6 construct: purchased Eurofins (KinaseProfiler)
# T6 sequence (P04049 whole entry): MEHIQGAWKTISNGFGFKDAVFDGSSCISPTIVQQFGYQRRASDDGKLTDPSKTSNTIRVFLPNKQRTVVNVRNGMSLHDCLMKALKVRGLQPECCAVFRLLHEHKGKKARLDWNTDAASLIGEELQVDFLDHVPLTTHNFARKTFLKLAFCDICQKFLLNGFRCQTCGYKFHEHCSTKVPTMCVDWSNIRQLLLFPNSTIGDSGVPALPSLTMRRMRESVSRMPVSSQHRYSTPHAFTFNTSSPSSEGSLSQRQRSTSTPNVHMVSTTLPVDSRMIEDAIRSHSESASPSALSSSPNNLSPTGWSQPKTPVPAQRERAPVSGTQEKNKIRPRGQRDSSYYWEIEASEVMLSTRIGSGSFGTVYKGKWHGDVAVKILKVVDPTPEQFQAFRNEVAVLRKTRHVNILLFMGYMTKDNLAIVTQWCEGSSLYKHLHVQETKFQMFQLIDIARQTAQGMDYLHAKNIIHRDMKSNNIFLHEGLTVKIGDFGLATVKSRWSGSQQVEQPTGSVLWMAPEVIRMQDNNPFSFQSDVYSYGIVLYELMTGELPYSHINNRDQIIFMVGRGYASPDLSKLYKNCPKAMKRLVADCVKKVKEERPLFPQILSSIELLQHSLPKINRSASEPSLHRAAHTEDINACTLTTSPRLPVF
# T2 sequence (Q96NX5 whole entry): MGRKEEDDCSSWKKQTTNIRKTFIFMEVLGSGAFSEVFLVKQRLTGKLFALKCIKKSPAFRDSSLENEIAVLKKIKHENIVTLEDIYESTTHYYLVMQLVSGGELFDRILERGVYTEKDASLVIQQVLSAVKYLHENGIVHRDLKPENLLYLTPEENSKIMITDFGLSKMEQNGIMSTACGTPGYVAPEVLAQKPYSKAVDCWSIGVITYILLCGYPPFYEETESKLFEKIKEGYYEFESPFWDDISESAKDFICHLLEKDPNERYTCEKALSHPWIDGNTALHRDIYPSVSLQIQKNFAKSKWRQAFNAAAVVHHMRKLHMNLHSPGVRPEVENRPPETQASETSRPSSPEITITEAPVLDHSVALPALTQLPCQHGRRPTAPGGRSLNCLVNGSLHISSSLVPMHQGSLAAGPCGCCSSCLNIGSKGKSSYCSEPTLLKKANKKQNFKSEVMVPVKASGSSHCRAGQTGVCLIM
# T4 sequence (Q9P286 whole entry): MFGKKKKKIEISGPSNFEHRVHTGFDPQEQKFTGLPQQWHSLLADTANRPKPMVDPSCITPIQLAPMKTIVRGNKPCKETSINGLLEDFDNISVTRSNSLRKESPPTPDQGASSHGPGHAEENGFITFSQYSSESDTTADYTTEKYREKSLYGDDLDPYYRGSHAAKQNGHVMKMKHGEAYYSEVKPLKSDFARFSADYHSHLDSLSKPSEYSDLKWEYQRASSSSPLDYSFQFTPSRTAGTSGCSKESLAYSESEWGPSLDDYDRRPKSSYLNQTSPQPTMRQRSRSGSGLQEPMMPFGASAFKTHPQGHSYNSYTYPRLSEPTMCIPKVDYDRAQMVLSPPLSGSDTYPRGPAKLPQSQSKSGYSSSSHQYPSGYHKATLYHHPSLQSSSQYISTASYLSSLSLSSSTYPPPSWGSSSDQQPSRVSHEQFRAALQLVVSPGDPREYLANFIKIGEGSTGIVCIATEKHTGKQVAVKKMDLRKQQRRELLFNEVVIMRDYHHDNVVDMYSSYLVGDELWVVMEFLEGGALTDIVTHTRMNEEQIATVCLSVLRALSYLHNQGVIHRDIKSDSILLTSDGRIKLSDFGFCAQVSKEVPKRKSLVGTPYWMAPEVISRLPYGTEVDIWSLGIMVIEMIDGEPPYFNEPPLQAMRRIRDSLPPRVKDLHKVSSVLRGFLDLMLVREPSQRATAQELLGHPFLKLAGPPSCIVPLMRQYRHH
smiles,measurement,setting,value
COc1cc(OC)c(Cl)c(-c2ccc3c(NC(=O)c4ccc(N5CCNC(C)(C)C5)cc4)n[nH]c3n2)c1Cl [3D185],inhibition at 0.01 µM,CaMKIV(h); 10 nM,-6%
same,inhibition at 0.1 µM,CaMKIV(h); 100 nM,-21%
same,inhibition at 1 µM,CaMKIV(h); 1000 nM,-22%
same,inhibition at 0.01 µM,CaMKIγ(h); 10 nM,-1%
same,inhibition at 0.1 µM,CaMKIγ(h); 100 nM,3%
same,inhibition at 1 µM,CaMKIγ(h); 1000 nM,41%
same,inhibition at 0.01 µM,IKKα(h); 10 nM,-3%
same,inhibition at 0.1 µM,IKKα(h); 100 nM,-3%
same,inhibition at 1 µM,IKKα(h); 1000 nM,-7%
same,inhibition at 0.01 µM,PAK5(h); 10 nM,-11%
same,inhibition at 0.1 µM,PAK5(h); 100 nM,-2%
same,inhibition at 1 µM,PAK5(h); 1000 nM,5%
same,inhibition at 0.01 µM,Tec(h) activated; 10 nM,3%
same,inhibition at 0.1 µM,Tec(h) activated; 100 nM,9%
same,inhibition at 1 µM,Tec(h) activated; 1000 nM,23%
same,inhibition at 0.01 µM,c-RAF(h); 10 nM,13%
same,inhibition at 0.1 µM,c-RAF(h); 100 nM,14%
same,inhibition at 1 µM,c-RAF(h); 1000 nM,5%
